Experimental data taken from article PMC11063955, “A multiplexed time-resolved fluorescence resonance energy transfer ultrahigh-throughput screening assay for targeting the SMAD4–SMAD3–DNA complex” (Journal of Molecular Cell Biology, 2023).
Read-outs that look alike come from different tables or passages of the source.

Columns and labels:
[1] = target: T1, full-length SMAD4–SMAD3 PPI (Homo sapiens, UniProt P84022+Q13485); experiment: GST pull-down assay, full-length SMAD4–SMAD3; assay type: binding
T1 construct: expressed in transfected cells; host or cells: HEK293T (lysate)
Description: (§1) To validate the hits from the pilot screening, we performed the orthogonal GST pull-down assay using cell lysates from HEK293T cells transfected with Venus-flag-SMAD3 and GST-SMAD4 or Venus-flag-SMAD3-MH2 and GST-SMAD4-MH2. After 48 h of transfection, the cells were lysed in 1% NP-40 lysis buffer, incubated with compounds for 16 h with rotation at 4°C, and then incubated with glutathione-conjugated beads (GE 17527901) for 2 h at 4°C. Beads were washed twice with 1% NP-40 lysis buffer, eluted by boiling in sodium dodecyl sulfate (SDS) sample buffer (Bio-Rad), and subjected to western blot analysis. Proteins in SDS sample buffer were resolved by 10% SDS polyacrylamide gel electrophoresis and transferred to nitrocellulose filter membranes at 100 V for 2 h at 4°C. After blocking in 5% nonfat dry milk in TBST (20 mM Tris-base, 150 mM NaCl, and 0.05% Tween 20) for 1 h at room temperature, the membranes were blotted with the indicated antibodies, mouse monoclonal anti-FLAG-HRP antibody (Sigma‒Aldrich, # A8592) and rabbit polyclonal anti-GST-HRP antibody (Sigma‒Aldrich, Cat# A7340), at 4°C overnight. The membranes were washed three times with 1× TBST for 15 min. […] Luminescence images were captured using the ChemiDoc^TM Touch Imaging System (Bio-Rad).

[2] = tested on: TGFβ-induced migration of A549 cells; experiment: Wound-healing assay; assay type: cell-based; details: 5 μM compound, TGFβ 10 ng/ml, A549 NucLight Red
Description: Briefly, A549 NucLight Red cells were seeded in 96-well plates (Greiner, Cat# 655087) at 40000 cells/well in RPMI 1640 media supplemented with 10% FBS and 1% antibiotics. After 24 h, a wound scratch was created in the confluent cell monolayer using a 96-well woundmaker (Sartorius), followed by washing three times with PBS. Then, the medium was replaced with RPMI 1640 medium without FBS. TGFβ (10 ng/ml), GA (5 μM), or GNA (5 μM) was added at the indicated concentrations. After 24 h of treatment, the plates were imaged using the ImageXpress Micro High-Content Imaging System (Molecular Device). The wound-healing activity was quantified by measuring the width (W) of the wound using ImageJ and expressed as […] × 100.

[3] = target: T2, SMAD4–SMAD3 PPI (Homo sapiens, UniProt P84022+Q13485); experiment: Multiplexed TR-FRET assay, Tb–D2 PPI readout (cell lysate-based); assay type: binding; details: for inhibition of PPI signal compared to DMSO control, primary screen: 1536-well uHTS, 20 μM, single point
T2 construct: expressed in transfected cells; host or cells: HEK293T (transient co-transfection, lysate used)

[4] = target: T3, SMAD4–SMAD3 MH2 domain PPI (Homo sapiens, UniProt P84022+Q13485); experiment: GST pull-down assay, SMAD4–SMAD3 MH2 domains; assay type: binding
T3 construct: GST-SMAD4-MH2 and VF-SMAD3-MH2 (C and D); expressed in transfected cells; host or cells: HEK293T (lysate)
Description: as §1

[5] = target: T4, SMAD–SBE4 PDI (SMAD4–SMAD3–DNA complex) (Homo sapiens, UniProt P84022+Q13485); experiment: Multiplexed TR-FRET assay, Tb–FAM PDI readout (cell lysate-based); assay type: binding; details: for inhibition of PDI signal compared to DMSO control, primary screen: 1536-well uHTS, 20 μM, single point
T4 construct: expressed in transfected cells; host or cells: HEK293T (transient co-transfection, lysate used)

[6] = tested on: TGFβ-induced SBE4-luc reporter activity in HEK293T cells; experiment: SBE luciferase reporter assay; assay type: cell-based, Human; details: 5 μM compound, TGFβ 10 ng/ml, 18 h
Description: SMAD3/SMAD4 complex transcriptional activity was measured using the SBE-luciferase reporter system. HEK293T cells were used to measure the luciferase activity. Cells were plated in 6-well plates and co-transfected with SBE4-Luc plasmid (1 μg, Addgene, 16495) and pDEST26-Renilla plasmid (0.1 μg) using FuGENE® HD (Promega, #E2312). After 24 h of transfection, the cells were pre-treated with GA (MedChemExpress, #HY-N0087) or GNA (MedChemExpress, #HY-5024) at 5 μM for 6 h followed by TGFβ (10 ng/ml, R&D Systems, #240-B) stimulation for an additional 18 h. Renilla and firefly luciferase activities were measured by an Envision Multilabel plate reader (PerkinElmer) using a Dual-Glo luciferase kit (Promega, Cat# E2920) according to the manufacturer's instructions. The normalized luminescence was calculated as the ratio of the luminescence of firefly luciferase over the luminescence of Renilla luciferase.

T2 sequence (Q13485 whole entry): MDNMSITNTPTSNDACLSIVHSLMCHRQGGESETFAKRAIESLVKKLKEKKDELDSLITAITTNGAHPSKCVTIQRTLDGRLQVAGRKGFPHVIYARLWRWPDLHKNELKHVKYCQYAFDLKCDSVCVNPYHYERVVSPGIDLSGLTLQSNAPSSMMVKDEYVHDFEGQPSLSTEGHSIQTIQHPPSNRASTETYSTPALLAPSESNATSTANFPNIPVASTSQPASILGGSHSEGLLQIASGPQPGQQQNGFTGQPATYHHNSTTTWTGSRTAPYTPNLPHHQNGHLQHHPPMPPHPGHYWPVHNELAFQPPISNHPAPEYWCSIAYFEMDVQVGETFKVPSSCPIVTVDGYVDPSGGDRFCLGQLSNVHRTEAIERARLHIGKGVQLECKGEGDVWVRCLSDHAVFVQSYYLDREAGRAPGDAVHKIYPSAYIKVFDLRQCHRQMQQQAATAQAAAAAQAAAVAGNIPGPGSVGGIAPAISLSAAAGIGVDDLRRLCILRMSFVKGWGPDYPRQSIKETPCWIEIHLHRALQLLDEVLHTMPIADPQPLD
T2 sequence (P84022 whole entry): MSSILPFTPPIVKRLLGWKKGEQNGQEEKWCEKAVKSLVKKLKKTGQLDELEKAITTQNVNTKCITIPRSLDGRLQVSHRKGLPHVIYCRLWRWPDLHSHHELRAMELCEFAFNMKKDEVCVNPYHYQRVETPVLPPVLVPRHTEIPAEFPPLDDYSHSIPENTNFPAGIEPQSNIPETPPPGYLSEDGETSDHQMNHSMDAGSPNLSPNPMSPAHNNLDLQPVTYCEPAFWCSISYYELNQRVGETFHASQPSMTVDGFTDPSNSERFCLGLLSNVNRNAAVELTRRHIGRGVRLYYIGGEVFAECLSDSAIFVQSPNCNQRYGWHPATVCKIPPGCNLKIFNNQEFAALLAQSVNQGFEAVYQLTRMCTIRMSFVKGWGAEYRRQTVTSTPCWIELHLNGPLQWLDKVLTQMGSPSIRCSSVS
T4 sequence (Q13485 whole entry): as the sequence (Q13485 whole entry) above
T4 sequence (P84022 whole entry): as the sequence (P84022 whole entry) above
T3 sequence (Q13485 323-552): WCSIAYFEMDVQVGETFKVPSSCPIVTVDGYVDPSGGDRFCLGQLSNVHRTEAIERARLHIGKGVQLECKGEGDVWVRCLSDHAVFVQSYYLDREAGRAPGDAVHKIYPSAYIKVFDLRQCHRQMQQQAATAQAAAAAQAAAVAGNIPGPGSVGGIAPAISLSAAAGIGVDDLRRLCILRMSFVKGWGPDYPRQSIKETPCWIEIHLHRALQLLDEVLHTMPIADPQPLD
T3 sequence (P84022 232-425): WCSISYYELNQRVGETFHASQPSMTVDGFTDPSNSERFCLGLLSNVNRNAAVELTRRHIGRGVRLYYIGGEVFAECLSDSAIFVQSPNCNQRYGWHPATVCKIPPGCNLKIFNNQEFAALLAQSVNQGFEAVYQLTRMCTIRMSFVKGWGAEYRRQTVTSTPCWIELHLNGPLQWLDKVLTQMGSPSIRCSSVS
T1 sequence (Q13485 whole entry): as the sequence (Q13485 whole entry) above
T1 sequence (P84022 whole entry): as the sequence (P84022 whole entry) above

| Structure (SMILES) | IC50 ([1]; GST-SMAD4 and VF-SMAD3 lysates, densitometry of western blots, read-out: IC50, decrease of SMAD3 protein in the pull-down GST-SMAD4 complex) | TGFβ-induced A549 cell migration (wound healing) [2] | inhibition of PPI signal compared to DMSO control, primary screen [3] | IC50 ([3]; TR-FRET dose–response confirmation with re-ordered compounds, lysate co-expressing His-SMAD4 and Flag-SMAD3, read-out: IC50, decrease in the PPI signal) | IC50 ([4]; GST-SMAD4-MH2 and VF-SMAD3-MH2 lysates, densitometry of western blots, read-out: IC50, inhibition of the PPI of SMAD4–SMAD3 MH2 domains) | inhibition of PDI signal compared to DMSO control, primary screen [5] | IC50 ([5]; TR-FRET dose–response confirmation with re-ordered compounds, 5′-FAM-SBE4 dsDNA, read-out: IC50, decrease in the PDI signal) | TGFβ-induced SBE4-luc activity [6] | IC50 [1] | IC50 [3] | IC50 [4] | IC50 [5] |
| --- | --- | --- | --- | --- | --- | --- | --- | --- | --- | --- | --- | --- |
| CC(C)=CCC[C@]1(C)C=Cc2c(O)c3c(c(CC=C(C)C)c2O1)O[C@]12C(=C[C@@H]4C[C@H]1C(C)(C)O[C@@]2(C/C=C(/C)C(=O)O)C4=O)C3=O [GA, gambogic acid] | ~11.4 µM | significantly reduced | robust inhibitory effects | 4.3 ± 0.5 µM | ~11.4 µM | robust inhibitory effects | 36 ± 9.4 µM | significant reduction | – | – | – | – |
| CC(C)=CCC/C(C)=C/Cc1c(O)c(CC=C(C)C)c2c(c1O)C(=O)C1=C[C@@H]3C[C@H]4C(C)(C)O[C@@](C/C=C(/C)C(=O)O)(C3=O)[C@@]14O2 [GNA, gambogenic acid] | – | significantly reduced | robust inhibitory effects | – | – | robust inhibitory effects | – | significant reduction | ~8.9 µM | 6.4 ± 1.6 µM | ~9 µM | 27.6 ± 4.8 µM |
